pEC50: −log10 of the molar value. Bounds are passed on as bounds.

Experiment [1] relates to HCV genotype 1a (H77 strain) replicon in HUH-7 cells. Description: HCV replicon luciferase reporter assay, genotype 1a. Format: cell-based. The note with it: Hepatitis C virus, Huh-7, 72 h, HCV genotype 1a replicon luciferase, 3 days incubation, read-out: LE_1a (EC50, range). The procedure, abridged:
(§1)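 Replicon inhibition for both genotypes was measured as Renilla luciferase signal (EnduRen, 7.5 μM final, 2 h) after 3-day, 37° C exposure of replicon-bearing HUH-7 cells in 4% FCS DMEM, 0.5% DMSO. The 1b construct carries S1179I; the 1a H77 construct carries P1496L and S2204I. Twenty-point, 3-fold dilutions were fitted four-parametrically for EC50, and CC50 was taken from multiplexed Cell Titer-Blue.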
In general terms: In antiviral work, replicon cells carry a viral genome segment that copies itself.

For experiment [2], the system named is HCV genotype 1b (Con1) replicon in HUH-7 cells. Description: HCV replicon luciferase reporter assay, genotype 1b. The experiment is classed as cell-based. The note with it: Hepatitis C virus, Huh-7, 72 h, HCV genotype 1b replicon luciferase, 3 days incubation, read-out: LE_1b (EC50, range). The method, boiled down: as §1

For the molecule `CCOc1nnc(O[C@@H]2C[C@H]3C(=O)N[C@]4(C(=O)NS(=O)(=O)C5CC5)C[C@H]4/C=C\CC[C@H](C)C[C@@H](C)[C@H](NC(=O)NC(C)(C)C)C(=O)N3C2)c2ccccc12` [Compound 5040, (2R,6S,7R,9S,13aS,14aR,16aS,Z)-6-(3-(tert-butyl)ureido)-N-(cyclopropylsulfonyl)-2-((4-ethoxyphthalazin-1-yl)oxy)-7,9-dimethyl-5,16-dioxo-1,2,3,5,6,7,8,9,10,11,13a,14,14a,15,16,16a-hexadecahydrocyclopropa[e]pyrrolo[1,2-a][1,4]diazacyclopentadecine-14a-carboxamide], the pEC50 in experiment [1] and in experiment [2] was < 7.06 throughout.
As for `CCOc1nnc(O[C@@H]2C[C@H]3C(=O)N[C@]4(C(=O)NS(=O)(=O)C5CC5)C[C@H]4/C=C\CC[C@@H](C)C[C@@H](C)[C@H](NC(=O)NC(C)(C)C)C(=O)N3C2)c2ccccc12` [Compound 5041, (2R,6S,7R,9R,13aS,14aR,16aS,Z)-6-(3-(tert-butyl)ureido)-N-(cyclopropylsulfonyl)-2-((4-ethoxyphthalazin-1-yl)oxy)-7,9-dimethyl-5,16-dioxo-1,2,3,5,6,7,8,9,10,11,13a,14,14a,15,16,16a-hexadecahydrocyclopropa[e]pyrrolo[1,2-a][1,4]diazacyclopentadecine-14a-carboxamide], the pEC50 (in general, the EC50 on a negative log10 scale, so that one unit is a factor of ten) in experiment [1] was > 8.26; in experiment [2] it was 6.99 to 8.32.
In the same order, the values of `CCOc1nnc(O[C@@H]2C[C@H]3C(=O)N[C@]4(C(=O)NS(=O)(=O)C5CC5)C[C@H]4/C=C\CC[C@H](C)C[C@@H](CC)[C@H](NC(=O)OC(C)(C)C)C(=O)N3C2)c2ccccc12` [Compound 5042, tert-butyl ((2R,6S,7R,9S,13aS,14aR,16aS,Z)-14a-((cyclopropylsulfonyl)carbamoyl)-2-((4-ethoxyphthalazin-1-yl)oxy)-7-ethyl-9-methyl-5,16-dioxo-1,2,3,5,6,7,8,9,10,11,13a,14,14a,15,16,16a-hexadecahydrocyclopropa[e]pyrrolo[1,2-a][1,4]diazacyclopentadecin-6-yl)carbamate] are 6.99 to 8.32 and 6.99 to 8.32.
On the same counts, the results for `CCOc1nnc(O[C@@H]2C[C@H]3C(=O)N[C@]4(C(=O)NS(=O)(=O)C5CC5)C[C@H]4/C=C\CC[C@@H](C)C[C@@H](CC)[C@H](NC(=O)OC(C)(C)C)C(=O)N3C2)c2ccccc12` [Compound 5043, tert-butyl ((2R,6S,7R,9R,13aS,14aR,16aS,Z)-14a-((cyclopropylsulfonyl)carbamoyl)-2-((4-ethoxyphthalazin-1-yl)oxy)-7-ethyl-9-methyl-5,16-dioxo-1,2,3,5,6,7,8,9,10,11,13a,14,14a,15,16,16a-hexadecahydrocyclopropa[e]pyrrolo[1,2-a][1,4]diazacyclopentadecin-6-yl)carbamate] are > 8.26 and > 8.26.
In the same order, the values of `CCOc1nnc(O[C@@H]2C[C@H]3C(=O)N[C@]4(C(=O)NS(=O)(=O)C5CC5)C[C@H]4/C=C\CC[C@H](C)C[C@@H](CC)[C@H](NC(=O)OC(C)(C)C(F)(F)F)C(=O)N3C2)c2ccccc12` [Compound 5044, 1,1,1-trifluoro-2-methylpropan-2-yl((2R,6S,7R,9S,13aS,14aR,16aS,Z)-14a-((cyclopropylsulfonyl)carbamoyl)-2-((4-ethoxyphthalazin-1-yl)oxy)-7-ethyl-9-methyl-5,16-dioxo-1,2,3,5,6,7,8,9,10,11,13a,14,14a,15,16,16a-hexadecahydrocyclopropa[e]pyrrolo[1,2-a][1,4]diazacyclopentadecin-6-yl)carbamate] are 6.99 to 8.32 and 6.99 to 8.32.
Consider `CCOc1nnc(O[C@@H]2C[C@H]3C(=O)N[C@]4(C(=O)NS(=O)(=O)C5CC5)C[C@H]4/C=C\CC[C@@H](C)C[C@@H](CC)[C@H](NC(=O)OC(C)(C)C(F)(F)F)C(=O)N3C2)c2ccccc12` [Compound 5045, 1,1,1-trifluoro-2-methylpropan-2-yl((2R,6S,7R,9R,13aS,14aR,16aS,Z)-14a-((cyclopropylsulfonyl)carbamoyl)-2-((4-ethoxyphthalazin-1-yl)oxy)-7-ethyl-9-methyl-5,16-dioxo-1,2,3,5,6,7,8,9,10,11,13a,14,14a,15,16,16a-hexadecahydrocyclopropa[e]pyrrolo[1,2-a][1,4]diazacyclopentadecin-6-yl)carbamate], for which the pEC50 in experiment [1] and in experiment [2] was > 8.26 in each case.
Take `CCOc1nnc(O[C@@H]2C[C@H]3C(=O)N[C@]4(C(=O)NS(=O)(=O)C5(C)CC5)C[C@H]4/C=C\CC[C@H](C)C[C@@H](CC)[C@H](NC(=O)OC(C)(C)C)C(=O)N3C2)c2ccccc12` [Compound 5046, tert-butyl ((2R,6S,7R,9S,13aS,14aR,16aS,Z)-2-((4-ethoxyphthalazin-1-yl)oxy)-7-ethyl-9-methyl-14a-(((1-methylcyclopropyl)sulfonyl)carbamoyl)-5,16-dioxo-1,2,3,5,6,7,8,9,10,11,13a,14,14a,15,16,16a-hexadecahydrocyclopropa[e]pyrrolo[1,2-a][1,4]diazacyclopentadecin-6-yl)carbamate]: the pEC50 in experiment [1] is 6.99 to 8.32; in experiment [2], > 8.26.
In the same order, the values of `CCOc1nnc(O[C@@H]2C[C@H]3C(=O)N[C@]4(C(=O)NS(=O)(=O)C5(C)CC5)C[C@H]4/C=C\CC[C@@H](C)C[C@@H](CC)[C@H](NC(=O)OC(C)(C)C)C(=O)N3C2)c2ccccc12` [Compound 5047, tert-butyl ((2R,6S,7R,9R,13aS,14aR,16aS,Z)-2-((4-ethoxyphthalazin-1-yl)oxy)-7-ethyl-9-methyl-14a-(((1-methylcyclopropyl)sulfonyl)carbamoyl)-5,16-dioxo-1,2,3,5,6,7,8,9,10,11,13a,14,14a,15,16,16a-hexadecahydrocyclopropa[e]pyrrolo[1,2-a][1,4]diazacyclopentadecin-6-yl)carbamate] are > 8.26 and > 8.26.
On the same counts, the results for `CCOc1nnc(O[C@@H]2C[C@H]3C(=O)N[C@]4(C(=O)NS(=O)(=O)C5(C)CC5)C[C@H]4/C=C\CC[C@H](C)C[C@@H](CC)[C@H](NC(=O)OC(C)(C)C(F)(F)F)C(=O)N3C2)c2ccccc12` [Compound 5048, 1,1,1-trifluoro-2-methylpropan-2-yl((2R,6S,7R,9S,13aS,14aR,16aS,Z)-2-((4-ethoxyphthalazin-1-yl)oxy)-7-ethyl-9-methyl-14a-(((1-methylcyclopropyl)sulfonyl)carbamoyl)-5,16-dioxo-1,2,3,5,6,7,8,9,10,11,13a,14,14a,15,16,16a-hexadecahydrocyclopropa[e]pyrrolo[1,2-a][1,4]diazacyclopentadecin-6-yl)carbamate] are 6.99 to 8.32 and 6.99 to 8.32.
In the same order, the values of `CCOc1nnc(O[C@@H]2C[C@H]3C(=O)N[C@]4(C(=O)NS(=O)(=O)C5(C)CC5)C[C@H]4/C=C\CC[C@@H](C)C[C@@H](CC)[C@H](NC(=O)OC(C)(C)C(F)(F)F)C(=O)N3C2)c2ccccc12` [Compound 5049, 1,1,1-trifluoro-2-methylpropan-2-yl((2R,6S,7R,9R,13aS,14aR,16aS,Z)-2-((4-ethoxyphthalazin-1-yl)oxy)-7-ethyl-9-methyl-14a-(((1-methylcyclopropyl)sulfonyl)carbamoyl)-5,16-dioxo-1,2,3,5,6,7,8,9,10,11,13a,14,14a,15,16,16a-hexadecahydrocyclopropa[e]pyrrolo[1,2-a][1,4]diazacyclopentadecin-6-yl)carbamate] are > 8.26 and > 8.26.
For `CCOc1nnc(O[C@@H]2C[C@H]3C(=O)N[C@]4(C(=O)NS(=O)(=O)C5(C)CC5)C[C@H]4/C=C\CC[C@H](C)C[C@@H](CC)[C@H](NC(=O)OC(C)(C)C(C)(F)F)C(=O)N3C2)c2ccccc12` [Compound 5050, 3,3-difluoro-2-methylbutan-2-yl((2R,6S,7R,9S,13aS,14aR,16aS,Z)-2-((4-ethoxyphthalazin-1-yl)oxy)-7-ethyl-9-methyl-14a-(((1-methylcyclopropyl)sulfonyl)carbamoyl)-5,16-dioxo-1,2,3,5,6,7,8,9,10,11,13a,14,14a,15,16,16a-hexadecahydrocyclopropa[e]pyrrolo[1,2-a][1,4]diazacyclopentadecin-6-yl)carbamate], the negative-log EC50 (pEC50) in experiment [1] and in experiment [2] was 6.99 to 8.32 in each case.
As to `CCOc1nnc(O[C@@H]2C[C@H]3C(=O)N[C@]4(C(=O)NS(=O)(=O)C5(C)CC5)C[C@H]4/C=C\CC[C@@H](C)C[C@@H](CC)[C@H](NC(=O)OC(C)(C)C(C)(F)F)C(=O)N3C2)c2ccccc12` [Compound 5051, 3,3-difluoro-2-methylbutan-2-yl((2R,6S,7R,9R,13aS,14aR,16aS,Z)-2-((4-ethoxyphthalazin-1-yl)oxy)-7-ethyl-9-methyl-14a-(((1-methylcyclopropyl)sulfonyl)carbamoyl)-5,16-dioxo-1,2,3,5,6,7,8,9,10,11,13a,14,14a,15,16,16a-hexadecahydrocyclopropa[e]pyrrolo[1,2-a][1,4]diazacyclopentadecin-6-yl)carbamate], the pEC50 in experiment [1] and in experiment [2] was > 8.26 in each case.

(Values after patent US9499550B2 (BRISTOL-MYERS SQUIBB COMPANY, priority 2012, dated 2016).)
